Reference: the NIST ThermoML archive (doi:10.1021/je9010097)
± gives the expanded uncertainty stated by the source.

Experiment: excess molar enthalpy (molar enthalpy of mixing); xn = mol fraction of the nth substance listed
Conditions: 308.15 K, 101 kPa, Liquid, Flow calorimetry

C1COCCN1 [tetrahydro-1,4-oxazine] + C1CCCCC1
Conditions	excess molar enthalpy [kcal/mol]
x2 = 0.1	0.146 ± 0.00502
x2 = 0.201	0.261 ± 0.00837
x2 = 0.3	0.354 ± 0.011
x2 = 0.401	0.418 ± 0.0129
x2 = 0.5	0.446 ± 0.0139
x2 = 0.6	0.436 ± 0.0134
x2 = 0.7	0.392 ± 0.0122
x2 = 0.801	0.312 ± 0.0098
x2 = 0.9	0.195 ± 0.00645

C1COCCN1 [tetrahydro-1,4-oxazine] + C1CCOCC1
Conditions	excess molar enthalpy [kcal/mol]
x2 = 0.101	0.039 ± 0.00143
x2 = 0.199	0.0703 ± 0.00239
x2 = 0.3	0.0946 ± 0.00311
x2 = 0.401	0.109 ± 0.00335
x2 = 0.501	0.115 ± 0.00359
x2 = 0.6	0.11 ± 0.00335
x2 = 0.702	0.0963 ± 0.00311
x2 = 0.8	0.0731 ± 0.00239
x2 = 0.899	0.0411 ± 0.00143

C1COCCN1 [tetrahydro-1,4-oxazine] + C1COCCO1
Conditions	excess molar enthalpy [kcal/mol]
x2 = 0.108	0.0296 ± 0.000956
x2 = 0.201	0.0507 ± 0.00167
x2 = 0.303	0.0681 ± 0.00215
x2 = 0.403	0.0772 ± 0.00239
x2 = 0.506	0.0791 ± 0.00239
x2 = 0.6	0.0753 ± 0.00239
x2 = 0.703	0.0645 ± 0.00215
x2 = 0.803	0.0495 ± 0.00167
x2 = 0.905	0.0272 ± 0.000956
